# Data: US20080312164A1 (priority 2006, published 2008)
# Experiments:
# Du145 cells [1] = experiment: Calcein AM cytotoxicity assay, Du145; type: cell-based; details: Homo sapiens, DU-145; Du145, Calcein AM, 72 h; read-out: IC50
# Excerpt: (§1) Five serial 1:2 dilutions were made with anhydrous DMSO at 100× the final concentration used in the assay.
# Du145 cells [2] = experiment: Cell Titer-Glo cytotoxicity assay, Du145; type: cell-based; details: Homo sapiens, DU-145; Du145, Cell Titer-Glo, 72 h; read-out: IC50
# Excerpt: as §1
# HCT-116 cells [3] = experiment: Calcein AM cytotoxicity assay, HCT-116; type: cell-based; details: Homo sapiens; HCT-116, Calcein AM, 72 h; read-out: IC50
# Excerpt: as §1
# HCT-116 cells [4] = experiment: Cell Titer-Glo cytotoxicity assay, HCT-116; type: cell-based; details: Homo sapiens; HCT-116, Cell Titer-Glo, 72 h; read-out: IC50
# Excerpt: as §1
# Hep3B cells [5] = experiment: Calcein AM cytotoxicity assay, Hep3B; type: cell-based; details: Homo sapiens, 72 h
# Excerpt: as §1
# Hep3B cells [6] = experiment: Cell Titer-Glo cytotoxicity assay, Hep3B; type: cell-based; details: Homo sapiens, Cell Titer-Glo, 72 h, read-out: IC50
# Excerpt: as §1
# SF-268 cells [7] = experiment: Calcein AM cytotoxicity assay, SF-268; type: cell-based; details: Homo sapiens; SF-268, Calcein AM, 72 h; read-out: IC50
# Excerpt: as §1
# SF-268 cells [8] = experiment: Cell Titer-Glo cytotoxicity assay, SF-268; type: cell-based; details: Homo sapiens; SF-268, Cell Titer-Glo, 72 h; read-out: IC50
# Excerpt: as §1
# SK-OV-3 cells [9] = experiment: Calcein AM cytotoxicity assay, SK-OV-3; type: cell-based; details: Homo sapiens; SK-OV-3, Calcein AM, 72 h; read-out: IC50
# Excerpt: as §1
# SK-OV-3 cells [10] = experiment: Cell Titer-Glo cytotoxicity assay, SK-OV-3; type: cell-based; details: Homo sapiens; SK-OV-3, Cell Titer-Glo, 72 h; read-out: IC50
# Excerpt: as §1
# NCI/ADR RES cells [11] = experiment: Calcein AM cytotoxicity assay, NCI/ADR-RES; type: cell-based; details: Homo sapiens, Calcein AM, 72 h, read-out: IC50
# Excerpt: as §1
# NCI/ADR RES cells [12] = experiment: Cell Titer-Glo cytotoxicity assay, NCI/ADR-RES; type: cell-based, human; details: Homo sapiens; NCI/ADR-RES, Cell Titer-Glo, 72 h; read-out: IC50
# Excerpt: as §1
# NCI-H460 cells [13] = experiment: Calcein AM cytotoxicity assay, NCI-H460; type: cell-based; details: Homo sapiens; NCI-H460, Calcein AM, 72 h; read-out: IC50
# Excerpt: as §1
# NCI-H460 cells [14] = experiment: Cell Titer-Glo cytotoxicity assay, NCI-H460; type: cell-based, human; details: Homo sapiens; NCI-H460, Cell Titer-Glo, 72 h; read-out: IC50
# Excerpt: as §1
# MCF7 cells [15] = experiment: Calcein AM cytotoxicity assay, MCF7; type: cell-based; details: Homo sapiens; MCF7, Calcein AM, 72 h; read-out: IC50
# Excerpt: as §1
# MCF7 cells [16] = experiment: Cell Titer-Glo cytotoxicity assay, MCF7; type: cell-based, human; details: Homo sapiens; MCF7, Cell Titer-Glo, 72 h; read-out: IC50
# Excerpt: as §1
# [17] = test system: NmuMG mouse mammary normal epithelial cells; experiment: Calcein AM cytotoxicity assay, NmuMG; type: cell-based; details: Epithelial cell, NmuMG, Calcein AM, 72 h, read-out: IC50
# Excerpt: as §1
# [18] = test system: NmuMG mouse mammary normal epithelial cells; experiment: Cell Titer-Glo cytotoxicity assay, NmuMG; type: cell-based; details: Mus musculus, Epithelial cell; NmuMG, Cell Titer-Glo, 72 h; read-out: IC50
# Excerpt: as §1
# HT-29 cells = experiment: MTT cytotoxicity assay, HT-29; type: cell-based; details: Homo sapiens; HT-29, MTT, 24 h; read-out: IC50
# Excerpt: The IC50 value for each library member represents at least twelve replicates of dose-response experiments conducted over five concentrations. […] In this assay, live cells were distinguished by the intracellular enzymatic activity that converts the cell-permeable molecule MTT to strongly colored formazan crystals, which are retained within live cells and absorb light at 570 nm.
# MTT Cytotoxicity Assay. HT-29 cell lines were maintained in RPMI medium 1640 supplemented with 10% (wt/vol) FBS and 1% penicillin-streptomycin (PS) (100 units/mL and 100 μg/mL). Cells were harvested by trypsinization using 0.25% trypsin and 0.1% EDTA and plated at a density of 2,000-5,000 cells per well of each 96-well microtiter plate. Cells were grown for 24 h at 37° C., with 5% CO2/95% air in a humidified incubator to allow cell attachment to occur before compound addition. Library members were stored at −20° C. under desiccating conditions before the assay. Library member stocks (1000×) were prepared in falcon tubes (BD Biosciences). Five dilutions were made with DMSO at 1000× the final concentration used in the assay. The 1000× stocks (3 μL) were diluted with complete culture medium (3 mL). Each plate contained twelve replicates of cells treated with 0.1% DMSO in complete cell culture medium that served as an individual negative control. Library member stocks (1×, 200 μL) were added to aspirated cells and replicated twelve times on each plate. Cells were incubated with the library members for 24 h before optical density reading. Test plates were removed from the incubator and washed once in sterile PBS to remove serum containing library members. Freshly-made 10×MTT solution in sterile PBS (5 mg/mL) was diluted 1:10 in serum-free culture medium and was sterilized using a 0.2 μm filter. Diluted MTT solution (1×, 50 μL) was added to each well and the plates were incubated in the dark for 2 h. Test plates were centrifuged at 1800×g for 5 min at 4° C. using a Beckman GPR centrifuge. MTT solution was removed by aspiration and 100 μL DMSO was added to each well to lyse cells and solubilize formazan crystals. Test plates were incubated in the dark at room temperature for 10 min. Plates were read for optical density at 570 nm.
# IC50 Calculations. For each library member, at least three dose-response experiments were conducted on separate plates. […] To calculate IC50, percent inhibitions were plotted as a function of log[concentration] and then fit to a four-parameter logistic model that allowed for a variable Hill slope by using XLFIT 4.1 (ID Business Solutions, Emeryville, Calif.).
# human cancer cell lines = experiment: Cytotoxicity across the panel of human cancer cell lines (average, high-throughput assays); type: cell-based; details: for IC50: average across eight human cancer cell lines, MTT (HT-29) values excluded, read-out: Cancerous Average IC50 / Average IC50 in Cancer Cell Lines
# Excerpt: as §1
Structure (SMILES),IC50 (Du145 cells [1]) [µM],IC50 (Du145 cells [2]) [µM],IC50 (HCT-116 cells [3]) [µM],IC50 (HCT-116 cells [4]) [µM],"IC50 (Hep3B cells [5]; Calcein AM, read-out: IC50) [µM]",IC50 (Hep3B cells [6]) [µM],IC50 (SF-268 cells [7]) [µM],IC50 (SF-268 cells [8]) [µM],IC50 (SK-OV-3 cells [9]) [µM],IC50 (SK-OV-3 cells [10]) [µM],IC50 (NCI/ADR RES cells [11]) [µM],IC50 (NCI/ADR RES cells [12]) [µM],IC50 (NCI-H460 cells [13]) [µM],IC50 (NCI-H460 cells [14]) [µM],IC50 (MCF7 cells [15]) [µM],IC50 (MCF7 cells [16]) [µM],IC50 [17] [µM],IC50 [18] [µM],IC50 (HT-29 cells) [µM],IC50 (human cancer cell lines) [µM],further results
"S=C=NCc1ccc(-c2ccccc2)cc1 [Compound 35, 1-(isothiocyanatomethyl)-4-phenylbenzene]",5.49,11,7.54,4.83,4.33,4.51,6.26,4.4,< 3.13,4.65,6.73,12.1,10.5,15,2.91,6.72,< 12.5,65.7,> 50,7.89,further fold increase in potency from multiple phenyl rings (human cancer cell lines; average IC50 compared with single-ring 23 and 38): ~2 fold
"S=C=NCc1ccccc1 [Compound 23, 1-(isothiocyanatomethyl)benzene]",5.37,4.64,11.5,3.19,22.5,9.7 ± 0.37,11.5,8.27,7.18,8.86,15.5,11.5 ± 0.77,22.9,14.5,16,10.6,< 12.5,15.4,31.4,9.47,fold increase in potency versus fully-saturated 18 (human cancer cell lines; average IC50 compared): > 3 fold
"C[S+]([O-])CCCCN=C=S (racemic) [Compound 13, 1-isothiocyanato-4-(methylsulfinyl)butane]",6.25,8.62,6.13,4.81,,2.75,5.69,6.22,5.65,9.9,13.1,16.5,13,10.1,7.28,8.59,5.61,3.2,46.4,7.61,IC50 (Hep3B cells [5]): < 3.13 µM
"COc1cc(OC)c(CN=C=S)c(OC)c1 [Compound 28, 2-(isothiocyanatomethyl)-1,3,5-trimethoxybenzene]",2.54,4.8,9.23,4.55,1.87,3.21,4.61,3.05,3.93,4.75,12,15.2,11.9,10.8,5.75,3.15,2.94,2.09,17,6.53,
"S=C=NCc1ccc(Br)cc1 [Compound 26, 1-bromo-4-(isothiocyanatomethyl)benzene]",7.67,10.1,5.16,9.8,7.16,6.8,10.9,6.96,3.94,7.17,> 20,22.3,16,> 20,7.08,5.92,18.3,9.77,47.4,10.7,
